Results from patent US11092610B2, “Biomarker SBP1 for early diagnosis of kidney diseases, and use thereof” (CELLGENTEK CO., LTD., priority 2016, dated 2021).

Legend:
Sprague-Dawley rat = assay: Diabetic animal model induced by STZ administration (blood glucose, urine and renal failure markers); type: in vivo
Method: To verify a diabetic animal model induced by STZ administration according to Example 1-1 of the present invention, an experiment was carried out by designing the experimental model as described in FIG. 1A.
However, in an experimental group in which diabetic animals are treated with an antidiabetic drug, it was confirmed that a blood glucose level was decreased gradually on Day 7, Day 14 and Day 21, and decreased to almost the normal level on the last day, Day 28.
Then, it was confirmed whether renal failure occurs in a diabetic animal model induced by STZ administration. […] It can be seen that, in the anti-diabetic drug-administered group, the BUN and creatinine levels are decreased to a normal range.

rat = assay: Hepatotoxicity model (carbon tetrachloride), liver findings and urinary SBP1; type: in vivo
Method: (§1) The extracted proteins were dissolved, and transferred to a nitrocellulose membrane. Here, methanol was added to a transfer buffer, and the reaction was performed at 80 V for 1 hour. After the proteins were transferred, the membrane was stained with Ponceau S (within 10 seconds to 1 minute, slightly stained to see a band), and sufficiently washed with DW or PBS for blocking. Here, a blocking buffer was used by dissolving 3 to 5% bovine serum albumin (BSA) in a solution in which TWEEN™ 20 was contained in Tris-buffered saline (TBS). A primary antibody was reacted at 4° C. overnight, rinsed with a wash buffer (surfactant-containing TBS or PBS) to remove unbinding primary antibodies, and then secondary antibodies were reacted. After the secondary antibodies were reacted, unbinding secondary antibodies were rinsed with a washing buffer, and a band was identified using luminol.
To confirm whether urinary SBP1 is released in a hepatotoxicity model, a hepatotoxic material such as carbon tetrachloride (CCl4) was administered to a rat to induce hepatotoxicity, and then SBP1 level in urine was measured.

SD rats = assay: Drug (cisplatin)-induced renal failure animal model; type: in vivo, rat; settings: 10 mg/kg I.P.
Method: On Day 1, Day 3 and Day 5 after the injection, protein contents in urine obtained for 24 hours were measured in rats of the cisplatin-administered experimental group and the untreated control.
as §1
A supernatant was obtained by centrifuging each urine sample at 3000 g for 15 minutes, and stored in a freezer at −80° C. Following the urine collection, experimental animals were anesthetized with carbon dioxide to collect blood from the abdominal aorta, and after natural death due to bleeding, the kidneys and liver were extracted. A supernatant was obtained by centrifuging each blood sample at 1500 g for 15 minutes, and stored in a freezer at −80° C. The obtained urine and blood samples were subjected to detection of conventional markers using a test kit corresponding to each parameter.

[1] = STZ 50 mg/kg single dose I.P., rat
[2] = after administration of hepatotoxic material
[3] = one day after administration, then decreased

SMILES: CN(N=O)C(=O)N[C@@H](C=O)[C@@H](O)[C@H](O)[C@H](O)CO [STZ, streptozocin]
- blood glucose level (Sprague-Dawley rat; [1]): ≥ 600 mg/dL
- blood glucose level, increase compared to the control (Sprague-Dawley rat; [1]): ≥ 6 fold
- BUN, increase compared to the control (Sprague-Dawley rat; STZ-administered group, rat): ≥ 2 fold
- creatinine, increase compared to the control (Sprague-Dawley rat; STZ-administered group, rat): ≥ 2 fold
- microalbumin in urine, increase compared to the control (Sprague-Dawley rat; STZ-administered group, rat): ≥ 10 fold
- urine volume, increase compared to the control (Sprague-Dawley rat; diabetic animal induced by STZ administration): ≥ 3 fold

SMILES: ClC(Cl)(Cl)Cl [carbon tetrachloride]
- BUN (rat; [2]): no changes
- SBP1 in urine (western blotting) (rat; [2]): not detected
- creatinine (rat; [2]): no changes
- ALT level compared with the control (rat; [3]): increased
- AST level compared with the control (rat; [3]): increased
- hepatotoxicity, liver histopathology (H&E staining) (rat; rat liver, from one day after administration): severe liver failure was observed

SMILES: N.N.[Cl][Pt][Cl] [cisplatin]
- BUN compared with the control (SD rats; Day 1): no significant differences
- kidney tissue damage (histology) (SD rats; Day 1): mildly damaged
- serum creatinine compared with the control (SD rats; Day 1): no significant differences
- urinary SBP1 level (western blotting) (SD rats; Day 1): increased
- BUN compared with the control (SD rats; Day 3): significantly increased
- serum creatinine compared with the control (SD rats; Day 3): significantly increased
- urinary SBP1 level compared with the control (SD rats; Day 3): highly increased
- BUN, increase compared with the control (SD rats; Day 5): 3 to 5 fold
- kidney tissue damage (histology) (SD rats; Day 5): most tubules were severely damaged
- serum creatinine, increase compared with the control (SD rats; Day 5): 3 to 5 fold
- urinary SBP1 level (western blotting) (SD rats; Day 5): detected at a very high level
